According to patent US20120157385A1, “CYCLOSPORIN CONJUGATES” (UCL Business PLC, priority 2009, published 2012):

Tests used:
[1] = tested on: intramitochondrial CyP-D rather than extramitochondrial CyP-A; settings: for mitochondrial matrix/extramitochondrial accumulation ratio: isolated rat liver mitochondria plus recombinant CyP-A, 25° C.
CyP-D(+) B50 cells = experiment: TMRE uptake (inner membrane potential) in B50 cells and CyP-D overexpressing clone; assay type: cell-based, rat
[2] = tested on: caspase-3 activation in B50 cells; experiment: Nitroprusside-induced caspase-3 activation in B50 cells (marker of CyP-A activity); assay type: cell-based, rat; settings: 100 μM nitroprusside 40 min, assayed after 5 hr, Compound 1 at 2.5 μM
rat hippocampal neurons = experiment: Oxygen and glucose deprivation (pseudo ischaemia/reperfusion) induced necrosis of hippocampal neurons; assay type: cell-based; settings: for protection against neuron mortality (necrosis) following OGD: within 90 min, about 60% of neurons necrotic without compound
[3] = tested on: Permeability Transition (PT) pore; experiment: Ca2+-induced PT pore opening (swelling, absorbance at 540 nm) in isolated mitochondria; assay type: biochemical; settings: read-out: concentration giving 50% inhibition of PT pore opening; isolated rat liver mitochondria, 50 μM Ca2+ infused slowly
[4] = tested on: rat heart cells (ventricular cardiomyocytes); experiment: Oxygen and glucose deprivation / reoxygenation induced necrosis of heart cells; assay type: cell-based
cyclophilin D (CyP-D) = cyclophilin D (CyP-D) (Rattus norvegicus, UniProt P29117); experiment: PPIase assay, inhibition of recombinant CyP-D by cyclosporins
cyclophilin D (CyP-D), sequence (P29117 30-206): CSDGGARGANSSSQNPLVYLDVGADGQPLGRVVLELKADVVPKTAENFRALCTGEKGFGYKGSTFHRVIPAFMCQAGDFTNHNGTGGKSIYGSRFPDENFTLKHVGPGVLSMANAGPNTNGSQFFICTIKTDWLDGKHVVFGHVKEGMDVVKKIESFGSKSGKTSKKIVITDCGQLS

**Q.** How did the “inhibition of PT pore formation compared with inhibition of extramitochondrial CyP-A” value ([1]; same incubation, CyP-A activity in supernatant) turn out when `C/C=C/C[C@@H](C)[C@@H](O)[C@H]1C(=O)N[C@@H](CC)C(=O)N(C)C(Cc2ccc(C(=O)NCCCCCCNC(=O)CCCCC[P+](c3ccccc3)(c3ccccc3)c3ccccc3)cc2)C(=O)N(C)[C@@H](CC(C)C)C(=O)N[C@@H](C(C)C)C(=O)N(C)[C@@H](CC(C)C)C(=O)N[C@@H](C)C(=O)N[C@H](C)C(=O)N(C)[C@@H](CC(C)C)C(=O)N(C)[C@@H](CC(C)C)C(=O)N(C)[C@@H](C(C)C)C(=O)N1C` (stereo partly drawn) [Compound 1, (6-(6-(4-(((5S,8S,11S,14S,17R,20S,23S,26S,29S,32S)-32-ethyl-29-((1R,2R,E)-1-hydroxy-2-methylhex-4-enyl)-5,11,20,23-tetraisobutyl-8,26-diisopropyl-1,4,10,14,17,19,22,25,28-nonamethyl-3,6,9,12,15,18,21,24,27,30,33-undecaoxo-1,4,7,10,13,16,19,22,25,28,31-undecaazacyclotritriacontan-2-yl)methyl)benzamido)hexylamino)-6-oxohexyl)triphenylphosphonium] was run?
**A.** The value was “considerably better”.

**Q.** And the “concentration for maximal restoration of TMRE uptake by CyP-D(+) cells” value (CyP-D(+) B50 cells; B50 clone overexpressing CyP-D about 10-fold, 50 nM TMRE)?
**A.** The value was ~2.4 µM.

**Q.** What about the “effect on TMRE uptake by wild type cells” value (CyP-D(+) B50 cells; wild type B50 cells, 0.8 μM CsA, 2.4 μM Compound 1) of the same compound?
**A.** Its value is “did not affect”.

**Q.** And the “effect on nitroprusside-induced activation of caspase-3” value [2]?
**A.** The value was “no significant effect”.

**Q.** And the “protection against neuron mortality (necrosis) following OGD” value (rat hippocampal neurons; 30 min OGD)?
**A.** Its value is “approximately halved”.

**Q.** And the “concentration giving maximal protection against OGD-induced necrosis” value (rat hippocampal neurons; hippocampal neurons, 30 min OGD)?
**A.** Its value is > 0.8 µM.

**Q.** And the IC50 [3]?
**A.** The IC50 was ~400 nM.

**Q.** How did the necrosis during reoxygenation ([4]; 5 hours reoxygenation, in particular first 3 hours) turn out when `CC[C@@H]1NC(=O)[C@H]([C@H](O)[C@H](C)C/C=C/C(=O)NCCOCCNC(=O)CC[P+](c2ccccc2)(c2ccccc2)c2ccccc2)N(C)C(=O)[C@H](C(C)C)N(C)C(=O)[C@H](CC(C)C)N(C)C(=O)[C@H](CC(C)C)N(C)C(=O)[C@@H](C)NC(=O)[C@H](C)NC(=O)[C@H](CC(C)C)N(C)C(=O)[C@H](C(C)C)NC(=O)[C@H](CC(C)C)N(C)C(=O)CN(C)C1=O` [Compound 2, (16R,17R,E)-17-((2S,5S,11S,14S,17S,20S,23R,26S,29S,32S)-5-ethyl-11,17,26,29-tetraisobutyl-14,32-diisopropyl-1,7,10,16,20,23,25,28,31-nonamethyl-3,6,9,12,15,18,21,24,27,30,33-undecaoxo-1,4,7,10,13,16,19,22,25,28,31-undecaazacyclotritriacontan-2-yl)-17-hydroxy-16-methyl-4,12-dioxo-1,1,1-triphenyl-8-oxa-5,11-diaza-1-phosphoniaheptadec-13-ene] was run?
**A.** Its necrosis during reoxygenation is “inhibited”.

**Q.** What about the “necrosis induced by OGD for 4 hours” value ([4]; before reoxygenation, with or without compound) of the same compound?
**A.** The value was “negligible necrosis”.

**Q.** What about the “cytoprotection at 15 nM” value ([4]; necrosis after 3 hours of reoxygenation, 15 nM) of the same compound?
**A.** The value was “complete protection”.

**Q.** What about the “mitochondrial matrix/extramitochondrial accumulation ratio” value [1] of the same compound?
**A.** Its value is >10.

**Q.** And the Ki (cyclophilin D (CyP-D))?
**A.** Its Ki is 30 nM.

**Q.** With `C/C=C/C[C@@H](C)[C@@H](O)[C@H]1C(=O)N[C@@H](CC)C(=O)N(C)C(Cc2ccc(C(=O)NCCOCCNC(=O)CC[P+](c3ccccc3)(c3ccccc3)c3ccccc3)cc2)C(=O)N(C)[C@@H](CC(C)C)C(=O)N[C@@H](C(C)C)C(=O)N(C)[C@@H](CC(C)C)C(=O)N[C@@H](C)C(=O)N[C@H](C)C(=O)N(C)[C@@H](CC(C)C)C(=O)N(C)[C@@H](CC(C)C)C(=O)N(C)[C@@H](C(C)C)C(=O)N1C` (stereo partly drawn) [Compound 3, 12-(4-(((5S,8S,11S,14S,17R,20S,23S,26S,29S,32S)-32-ethyl-29-((1R,2R,E)-1-hydroxy-2-methylhex-4-enyl)-5,11,20,23-tetraisobutyl-8,26-diisopropyl-1,4,10,14,17,19,22,25,28-nonamethyl-3,6,9,12,15,18,21,24,27,30,33-undecaoxo-1,4,7,10,13,16,19,22,25,28,31-undecaazacyclotritriacontan-2-yl)methyl)phenyl)-4,12-dioxo-1,1,1-triphenyl-8-oxa-5,11-diaza-1-phosphoniadodecane] as the compound, how does the “mitochondrial matrix/extramitochondrial accumulation ratio” value [1] read?
**A.** The value was >10.

**Q.** And the Ki (cyclophilin D (CyP-D))?
**A.** Its Ki is 6 nM.

**Q.** With `C/C=C/C[C@@H](C)[C@@H](O)[C@H]1C(=O)N[C@@H](CC)C(=O)N(C)C(Cc2ccc(C(=O)NCCCCCCNC(=O)c3ccc(-c4c5ccc(=[N+](C)C)cc-5oc5cc(N(C)C)ccc45)cc3)cc2)C(=O)N(C)[C@@H](CC(C)C)C(=O)N[C@@H](C(C)C)C(=O)N(C)[C@@H](CC(C)C)C(=O)N[C@@H](C)C(=O)N[C@H](C)C(=O)N(C)[C@@H](CC(C)C)C(=O)N(C)[C@@H](CC(C)C)C(=O)N(C)[C@@H](C(C)C)C(=O)N1C` (some centres unmarked) [Compound 4] as the compound, how does the “mitochondrial matrix/extramitochondrial accumulation ratio” value [1] read?
**A.** The value was 4.2.

**Q.** And the Ki (cyclophilin D (CyP-D))?
**A.** Its Ki is 120 nM.

**Q.** What does the source list for `C/C=C/C[C@@H](C)[C@@H](O)[C@H]1C(=O)N[C@@H](CC)C(=O)N(C)CC(=O)N(C)[C@@H](CC(C)C)C(=O)N[C@@H](C(C)C)C(=O)N(C)[C@@H](CC(C)C)C(=O)N[C@@H](C)C(=O)N[C@H](C)C(=O)N(C)[C@@H](CC(C)C)C(=O)N(C)[C@@H](CC(C)C)C(=O)N(C)[C@@H](C(C)C)C(=O)N1C` [CsA, Cyclosporin A]?
**A.** maximal protection ([4]; necrosis after 3 hours of reoxygenation): 42%; protection against neuron mortality (necrosis) following OGD (rat hippocampal neurons; 30 min OGD): less protective; protection against OGD-induced necrosis at 0.1 μM (rat hippocampal neurons; hippocampal neurons, 0.1 μM): relatively small protection; protection against OGD-induced necrosis at higher concentrations (rat hippocampal neurons; hippocampal neurons, above 0.1 μM): reversed
